Assay results reported in patent US6043283A, “Tyramine compounds and their neuronal effects” (priority 1997, dated 2000).
pEC50: −log10 of the molar value. “Also recorded” adds a separate entry of the source. Structures can show the parent of a compound that is named as a salt. Where two headings read alike, the source gives them in different places.

Experiments:
[1] = tested on: human microglia stimulated with S5; format: cell-based;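 note: drugs applied at 10 µM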
[2] = tested on: Aβ1-42-stimulated microglia; format: cell-based, rat
Source text: Briefly, hippocampal cells obtained from embryonic stage 18 rat fetuses were dispersed mechanically in the presence of 0.125% trypsin and plated onto poly-L-lysine coated glass coverslips in 24 well plates at 250,000 cells per well (resulting in adhering cell densities of about 1250 cells per mm^2) in chemically-defined N2 culture media containing 5% fetal bovine serum. Gradual reduction of serum began on day 10 in vitro with daily 1:1 volume replacements with chemically-defined media, until a final concentration of 0.6% serum was achieved. […] In order to eliminate microglia, cultures were exposed to saporin (sap; a ribosome-inactivating protein; Davis and Wiley, 1989) coupled to acetylated LDL (ac-LDL) at a concentration of 10 μg/ml for 12 hours. […] Cultures depleted of microglia were then exposed to test substances in the presence or absence of exogenous microglia (100,000 cells per culture). […] Controls included cultures without saporin-treatment, cultures without test substances, and cultures with test substances but lacking microglia.
(§1) On day 14 of culture, immediately following saporin treatment, test substances were added to the hippocampal cultures. Synthetic peptide were supplied as 1 mM stock solutions in 0.1 M phosphate buffered saline, pH 7.2, stored for at least 1 week at 4° C. before use. After 72 hours incubation, the cultures were fixed in 4% paraformaldehyde at room temperature for 18 hours and immuno-stained by overnight incubation with a mixture of anti-neurofilament antibodies (NF; SMI-311, 1:600; Stemberger Monoclonals, Inc.) plus anti-MAP-2 (Boehringer Mannheim, 184959; 1:600) at 4° C. in the presence of 2% horse serum and 0.3% triton X-100 to delineate both neuronal cell bodies and neurites. Astroglia were visualized using sheep anti-glial fibrillary acidic protein (GFAP, Sigma) as described by Giulian et al., 1989. Finally, to label all cell nuclei, the coverslips were exposed to 0.01% bisbenzimide (Hoechst 33258; Sigma) in PBS, pH 6.9, and rinsed in distilled water and mounted in glycerin. Immuno-labeled cells per field and nuclei per field were scored at 200X magnification using fluorescence microscopy. Data were expressed as % mean survival expressed in terms of parallel untreated control cultures after scoring at least 20 randomly selected fields for each of 3 coverslips.

[3] = tested on: NTox released by Aβ1-42-stimulated microglia (neuron killing); assay: cells; format: cell-based, rat; conditions: for neuroprotective activity (structure/function): Example 14
Source text: . Briefly, hippocampal cells obtained from embryonic stage 18 rat fetuses were dispersed mechanically in the presence of 0.125% trypsin and plated onto poly-L-lysine coated glass coverslips in 24 well plates at 250,000 cells per well (resulting in adhering cell densities of about 1250 cells per mm^2) in chemically-defined N2 culture media containing 5% fetal bovine serum. Gradual reduction of serum began on day 10 in vitro with daily 1:1 volume replacements with chemically-defined media, until a final concentration of 0.6% serum was achieved. […]; see FIG. 18). In order to eliminate microglia, cultures were exposed to saporin (sap; a ribosome-inactivating protein; Davis and Wiley, 1989) coupled to acetylated LDL (ac-LDL) at a concentration of 10 μg/ml for 12 hours. […] Cultures depleted of microglia were then exposed to test substances in the presence or absence of exogenous microglia (100,000 cells per culture). […]. Controls included cultures without saporin-treatment, cultures without test substances, and cultures with test substances but lacking microglia.
as §1
The procedures described above and by Giulian et al, 1996, provided for the identification of tyramine compounds as therapeutic agents for neurodegenerative diseases or disorders including, for example, Alzheimer's disease. Cells from the brain of fetal rats were grown in tissue cultures. Microglial populations within the cultures were controlled following the method described in Example 5 above. Known amounts of Aβ peptides coupled to microspheres were added to the culture. The Aβ spheres stimulated the microglia to release NTox, which in turn destroyed the neurons. The neurons in the cultures were monitored for survival by immuno-staining.
Generally, drug assays involve the addition of known concentrations of a test agent over a range of concentrations. After 72 hours, the experiment is stopped and the neurons are identified by immuno-staining. The data is expressed as % neuronal survival […]. Dose response curves are then used to estimate Effective Dose50 % (ED50) of neuroprotective agents. […].
In this experiment, about 65% of the neurons were destroyed by the Aβ-stimulated microglia. […] Other tyramine compounds, including tyrosine esters, were neuroprotective (FIG. 30).
Following the methods described herein, numerous compounds were examined to determine their neuroprotective activity. […]

[4] = tested on: NMDA receptor; assay: whole cell current elicited by NMDA in Xenopus oocytes injected with NMDA R1 and R2 subunit cRNAs; format: cell-based; conditions: for effect on current elicited by NMDA: FIG. 34
Source text: FIG. 34 is a graph shorting the % maximal current peak elicited by NMDA, octopamine and tyramine compounds in the presence of a given NMDA concentration. […].
The precise mechanism of NTox that leads to the destruction of neurons is only partially characterized. Based upon extensive testing with receptor antagonists, it has been discovered that two classes of neurotransmitter receptors are involved--the n-methyl D-aspartate (NMDA) class of […] receptors and the Muscarinic (M receptors) class of cholinergic receptors. […] […]. Further study to determine if tyramine compounds act upon the NMDA receptor itself involved expression of the NMDA receptor complex in Xenopus oocytes and measurement of ionic fluxes across the oocyte membrane that are elicited by NMDA. […] […]. […] Thus, tyramine compounds appear to have several actions, one of which is upon the NMDA receptor.

[5] = tested on: NTox; assay: protection of neurons against isolated NTox applied directly; format: cell-based; conditions: isolated NTox; FIGS. 13, 32
Source text: FIG. 32 is a graph showing the specificity of tyramine compounds to NTox. […].
Initial studies to characterize the neuroprotective effect of tyramine compounds employed microglia-neuron co-culture assays in the presence of Aβ or isolated senile plaques. Inhibition of neuron killing in […]--inhibition of microglial activation by Aβ or plaques; inhibition of NTox production and release by microglia; or inhibition of action of NTox upon neurons. […] Effective doses in the low nmolar range show the tyramine compounds to be very potent agents compared with low μmolar range of other neuroprotective drugs under development for neurological disorders.

[6] = format: physicochemical; conditions: chemically defined culture media, 37° C.; Table 2
Source text: Solubility of peptides is described for chemicallydefined culture media a […]

[7] = tested on: rat microglia; assay: binding of Aβ-coupled microspheres to microglia; conditions: 4 hours at 37° C. (72 h in FIG. 23)
[8] = tested on: microglia; assay: inhibition of SpheresAβ1-42 binding to microglia; set-up: species or system rat; conditions: 10 μmoles/l, 4 hours, 37° C.
Protocol: Spheresmal-BSA (which bind to scavenger receptors) or SpheresAβ1-42 were incubated with microglia for 4 hours following pre-treatment of cells with trypsin (5000 units/ml at 37° C. for 60 min followed by inactivation with soybean trypsin inhibitor), with heparinase (heparin lyase EC 4.2.2.7; two consecutive treatments each of 0.01 units/ml for 60 min), or with chondroitinase ABC (chondroitin ABC lyase EC 4.3.3.4; two consecutive treatments each of 0.02 units/ml for 60 min). […] Microglia mixed with hippocampal neurons were treated with combinations of β-D-xyloside (1 mm), heparinase (0.02 units/ml), or chondroitinase (0.04 units/ml) and then exposed to plaques.
Each well then received 250,000 SpheresAβ1-42 or Spheresmal-BSA in the presence or absence of Aβ peptides, GAGs, or scavenger receptor ligands. Binding assays were carried out at 37° C. for 4 hours after which coverslips were dipped 10 times in phosphate buffer and fixed with 4% buffered paraformaldehyde. Microsphere adherence to cells was scored at 200 magnification with phase/fluorescence microscopy. Data, expressed as % inhibition of sphere binding, was calculated from total number of spheres per field noted for control cultures receiving spheres only. Values are based upon at least 3 coverslips from 2 independent experiments. […] Washed spheres were resuspended in 0.2 M borate buffer (pH 8.5) in the presence of 300 μg Aβ or 400 μg BSA in 6% DMSO. After overnight mixing at room temperature, the spheres were washed extensively and blocked by 1 M glycine (pH 8.0) for 30 minutes.

[9] = tested on: rat microglia / hippocampal neurons; conditions: rat microglia, mostly 1 μmole/l
[10] = tested on: human microglia; assay: induction of neuron-killing human microglia; format: cell-based; conditions: 1 μmole/liter synthetic peptides

Compound: NC(CCCCCP(=O)(O)O)C(=O)O (centres unmarked) [AP7]
- drug blockade of neuron killing, human microglia [1]: blocked neuron death
- drug blockade of neuron killing, rat microglia [2]: prevented neuronal loss; also recorded: blocked neuron death

Compound: CC(=N)NCCC[C@H](N)C(=O)O [L-NIO, L-N-5-(1-imino-ethyl)-ornithine hydrochloride]
- drug blockade of neuron killing, human microglia ([1]; hydrochloride): no reduction of microglia-mediated neuron killing; also recorded: No protective effects were observed
- drug blockade of neuron killing, rat microglia ([2]; hydrochloride): no reduction of microglia-mediated neuron killing; also recorded: No protective effects were observed

Compound: N[C@@H](CCC(=O)N[C@@H](CS)C(=O)NCC(=O)O)C(=O)O [glutathione]
- drug blockade of neuron killing, human microglia [1]: no reduction of microglia-mediated neuron killing; also recorded: did not block microglial killing of neurons
- drug blockade of neuron killing, rat microglia [2]: no reduction of microglia-mediated neuron killing; also recorded: did not block microglial killing of neurons

Compound: CC(C(O)c1ccc(O)cc1)N1CCC(Cc2ccccc2)CC1 (centres unmarked) [ifenprodil]
- drug blockade of neuron killing, human microglia [1]: blocked neuron death
- drug blockade of neuron killing, rat microglia [2]: prevented neuronal loss; also recorded: blocked neuron death

Compound: NCC(O)c1ccc(O)cc1 (centres unmarked) [octopamine]
- neuroprotective activity (structure/function) [3]: little or no neuroprotective activity
- effect on current elicited by NMDA [4]: does not alter the current measured
- effect on current elicited by NMDA ([4]; listed as Octopamine): no effect

Compound: N[C@@H](Cc1ccc(O)cc1)C(=O)OCc1ccccc1 [tyrosine benzyl ester]
- neuroprotective activity (structure/function) [3]: enhance neuroprotective effects
- effect on current elicited by NMDA [4]: inhibition of NMDA

Compound: CC(C)(C)OC(=O)[C@@H](N)Cc1ccc(O)cc1 [tyrosine t-butyl ester]
- inhibition of killing action of NTox applied to neurons [5]: killing action of NTox is inhibited
- neuroprotective effect ([3]; Aβ1-42-stimulated microglia): most potent neuroprotectant tested
- neuroprotective activity (structure/function) [3]: enhance neuroprotective effects
- pEC50 ([3]; Rattus norvegicus, Aβ-stimulated microglia, 72 h, FIG. 31, read-out: ED50 (neuroprotection)): 8.70
- effect on NMDA-stimulated voltage change across oocyte membrane ([4]; 300 μM): blocked
- effect on current elicited by NMDA [4]: inhibition of NMDA

Compound: Aβ17-42: Aβ peptide residues 17-42 (LVFFAEDVGSNKGAIIGLMVGGVVIA; Amyloid-beta protein 42; UniProt P05067 688-713, looked up, fragment)
- Solubility [6]: very insoluble
- binding of peptide-coupled microspheres to microglia [7]: neither binds to microglia nor elicits toxicity

Compound: Aβ36-42: Aβ peptide residues 36-42 (VGGVVIA; Amyloid-beta protein 42; UniProt P05067 707-713, looked up, fragment)
- inhibition of SpheresAβ1-42 binding by peptides [8]: did not
- binding of peptide-coupled microspheres to microglia [7]: little cell binding
- blocking of Aβ1-42 induced microglial neurotoxicity by peptides ([2]; 10 μmoles/liter peptide, 1 μmole/liter Aβ1-42): did not

Compound: catalase
- drug blockade of neuron killing, human microglia [1]: no reduction of microglia-mediated neuron killing; also recorded: did not block microglial killing of neurons
- drug blockade of neuron killing, rat microglia [2]: no reduction of microglia-mediated neuron killing; also recorded: did not block microglial killing of neurons

Compound: rodent Aβ1-40: rodent Aβ1-40 (5Arg-Gly, 10Tyr-Phe, 13His-Arg) (DAEFGHDSGFEVRHQKLVFFAEDVGSNKGAIIGLMVGGVV; Amyloid-beta protein 40; UniProt P12023 672-711, looked up)
- inhibition of SpheresAβ1-42 binding by peptides [8]: unable to block
- induction of neurotoxic microglia / neuron killing [9]: did not activate microglia
- induction of neurotoxic microglia / neuron killing ([9]; listed as Aβ1-40rodent): neither
- induction of neurotoxic microglia / neuron killing ([9]; listed as Rodent Aβ1-40): did not activate microglia
- induction of neurotoxic microglia / neuron killing ([9]; listed as rodent form of Aβ1-40): inactive
- binding of peptide-coupled microspheres to microglia [7]: little cell binding
- induction of neurotoxic human microglia [10]: inactive

Compound: vitamin E
- drug blockade of neuron killing, human microglia [1]: no reduction of microglia-mediated neuron killing; also recorded: did not block microglial killing of neurons
- drug blockade of neuron killing, rat microglia [2]: no reduction of microglia-mediated neuron killing; also recorded: did not block microglial killing of neurons
